Reference: patent US12256759B2, “Methods for the reduction of methane production in ruminants” (Loam Bio Pty Ltd, priority 2021, dated 2025)

Legend:
[1] = test system: methane production; conditions: among antimethanogenic compounds found in A. taxiformis; cited from earlier work
[2] = target: T1, methyl-coenzyme M reductase (MCR) (Methanothermobacter marburgensis, UniProt P11558); conditions: prevents the final catalysis step of methanogenesis; cited from earlier work
T1 sequence (P11558 1-550): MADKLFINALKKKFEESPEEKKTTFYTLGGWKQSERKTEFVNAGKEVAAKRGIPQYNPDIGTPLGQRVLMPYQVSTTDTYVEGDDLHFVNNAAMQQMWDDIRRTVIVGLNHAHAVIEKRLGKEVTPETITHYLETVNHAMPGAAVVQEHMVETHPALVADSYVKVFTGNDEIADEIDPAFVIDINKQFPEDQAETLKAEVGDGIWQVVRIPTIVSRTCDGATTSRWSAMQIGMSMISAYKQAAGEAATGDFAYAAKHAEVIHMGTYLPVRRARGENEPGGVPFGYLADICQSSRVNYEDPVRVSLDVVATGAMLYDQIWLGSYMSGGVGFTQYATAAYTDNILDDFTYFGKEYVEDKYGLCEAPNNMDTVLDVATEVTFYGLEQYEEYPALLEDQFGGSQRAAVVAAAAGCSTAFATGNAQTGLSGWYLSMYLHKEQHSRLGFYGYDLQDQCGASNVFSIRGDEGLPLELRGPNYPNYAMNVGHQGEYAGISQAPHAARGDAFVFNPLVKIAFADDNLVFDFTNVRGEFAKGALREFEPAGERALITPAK
T1 sequence (P11560 1-443 partner): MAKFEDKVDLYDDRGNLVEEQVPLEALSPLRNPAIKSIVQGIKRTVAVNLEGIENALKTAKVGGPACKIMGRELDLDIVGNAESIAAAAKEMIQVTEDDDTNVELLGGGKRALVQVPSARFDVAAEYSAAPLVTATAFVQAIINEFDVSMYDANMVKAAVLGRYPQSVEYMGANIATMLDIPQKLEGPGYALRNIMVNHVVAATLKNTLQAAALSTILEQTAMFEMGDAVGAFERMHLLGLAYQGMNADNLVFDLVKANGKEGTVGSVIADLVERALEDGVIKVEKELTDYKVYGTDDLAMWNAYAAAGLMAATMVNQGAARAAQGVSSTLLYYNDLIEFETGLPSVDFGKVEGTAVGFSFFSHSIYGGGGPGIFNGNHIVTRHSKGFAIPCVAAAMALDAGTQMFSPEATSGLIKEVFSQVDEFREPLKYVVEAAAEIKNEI
T1 sequence (P11562 1-249 partner): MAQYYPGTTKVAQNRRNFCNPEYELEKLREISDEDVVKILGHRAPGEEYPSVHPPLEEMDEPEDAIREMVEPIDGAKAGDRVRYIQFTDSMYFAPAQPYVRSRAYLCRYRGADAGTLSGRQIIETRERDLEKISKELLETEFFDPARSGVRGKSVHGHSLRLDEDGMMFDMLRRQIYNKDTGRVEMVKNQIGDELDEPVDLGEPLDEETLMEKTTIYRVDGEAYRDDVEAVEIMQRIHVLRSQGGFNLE

[3] = test system: Methanobrevibacter smithii; conditions: 100 ul chloroform, positive control

Structure (SMILES) | activity at inhibiting methane production [1] | mode of action on methyl-coenzyme M reductase (MCR) [2] | inhibition of methane production [3]
BrC(Br)Br [bromoform] | highest activity at inhibiting methane production | competitive inhibitor or analog | –
ClC(Br)Br [dibromochloromethane] | highest activity at inhibiting methane production | – | –
ClC(Cl)Cl [chloroform] | – | – | dramatic inhibition in methane production
